Reference: patent publication US9273043B2, “TRPV1 antagonists including dihydroxy substituent and uses thereof” (Purdue Pharma L.P., priority 2011, dated 2016)
Marks after values point to notes of the source that are not given here.

System: MIA-induced osteoarthritis pain
Experiment: MIA-induced osteoarthritis model, grip force test
Type: in vivo, rat
Conditions: rat MIA, grip force
Description: Osteoarthritis Pain: To assess the actions of a Compound of Formula (I) for the treatment or prevention of osteoarthritis pain, the rat monosodium iodo-acetate (MIA, i.e., sodium 2-iodoacetate) induced osteoarthritis model was used. Intra-articular injection of MIA causes joint degeneration characterized by osteolysis and swelling, with displacement of the patella, and reductions in bone mineral content and bone mineral density (Pomonis et al., “Development and pharmacological characterization of a rat model of osteoarthritis pain,” Pain 114: 339-346 (2005)). Under isoflurane anaesthesia, an intra-articular injection of 2 mg of MIA (Sigma-Aldrich) in 50 μl of saline was administered through the infrapatellar ligament of the knee joint of the right hind leg of the male, 6 week old Crl:CD(SD) rats. Control rats received an intra-articular injection of 50 μl of saline into the knee joint of the right hind leg. The left knee joint of all rats was untreated. Two weeks after MIA injection, rats were assessed for osteoarthritis pain related-behaviors immediately prior to and 1, 3, 5, 7, and 24 hours after oral drug-in-vehicle administration (for day 1) by determining their weight-bearing capabilities, via the weight bearing difference (WBD) test, and their gripping capabilities, via the grip force test, each as described below. Thus, in the assessment for osteoarthritis pain relief through gripping capability determinations, the 24 hour time point was the start of the next day when drug-in-vehicle was again orally administered (24 hours after the prior administration) for certain dosages. On days 2, 3, and 4, gripping capability response was determined 3 and 24 hours thereafter.
The grip force (GF) of the hind legs was assessed using a Animal Grip Strength System (San Diego Instruments, San Diego, Calif.). Rats were gently restrained and allowed to grasp the wire mesh strain gauge with their hind legs. The animals were then moved in a rostral-caudal direction until they let go of the gauge. The force (in g) at which the rat let go was recorded. Each animal was tested twice at approximately 3-10 minute intervals at each time point and the average of the two readings was used for the GF in data analysis.
Grip force, normalized to account for the weight of each animal, was expressed as “GF/B”, i.e., the ratio of GF to body weight, where GF is the grip force in grams and B is the body weight of the animal in kg. The “% GFR”, i.e., the percentage reversal of the (normalized) grip force impediment occurring post-MIA injection, was determined for each dosage at each time point using the following formula:
[formula] where (GF/B)Drug is the GF/B determined at each post-oral-administration time-point for each dose of each substance administered to MIA-injected animals, (GF/B)Vehicle is the GF/B determined at each post-oral-administration time-point for the vehicle control administered to MIA-injected animals, and (GF/B)Control Rat is the GF/B determined for control rats (saline-injected animals receiving orally-administered vehicle only). With the exception of the controls (i.e., celecoxib, vehicle) where the student's t-test was used, Dunnett's test was conducted for the % GFR. In either instance, values with p <0.05 were considered to be statistically significant.

CC1CN(c2ncc(C(O)CO)cc2F)CCN1C(=O)Nc1nc2cc(F)ccc2s1.O=C(O)C=CC(=O)O (stereo not drawn)
% GFR [mean] (oral 0.3 mg/kg, 1 h (day 1)): 12.8%
% GFR [mean] (oral 0.3 mg/kg, 3 h (day 1)): 21.1* %
% GFR [mean] (oral 0.3 mg/kg, 3 h (day 1), listed as product prepared with Compound A155(a) and fumaric acid): 21.1%
% GFR [mean] (oral 0.3 mg/kg, 5 h (day 1)): 17.3* %
% GFR [mean] (oral 0.3 mg/kg, 7 h (day 1)): 3.7%
% GFR [mean] (oral 0.3 mg/kg, 24 h after day 1 dose (0 hrs day 2)): 4.0%
% GFR [mean] (oral 1 mg/kg once daily, 3 h (day 2)): 43.1** %
% GFR [mean] (oral 1 mg/kg once daily, 3 h (day 2), listed as product prepared with Compound A155(a) and fumaric acid): 43.1%
% GFR [mean] (oral 1 mg/kg once daily, 3 h (day 3)): 38.0** %
% GFR [mean] (oral 1 mg/kg once daily, 3 h (day 3), listed as product prepared with Compound A155(a) and fumaric acid): 38.0%
% GFR [mean] (oral 1 mg/kg once daily, 3 h (day 4)): 40.1** %
% GFR [mean] (oral 1 mg/kg once daily, 3 h (day 4), listed as product prepared with Compound A155(a) and fumaric acid): 40.1%
% GFR [mean] (oral 1 mg/kg once daily, 24 h after day 2 dose (0 hrs day 3)): 15.4** %
% GFR [mean] (oral 1 mg/kg once daily, 24 h after day 3 dose (0 hrs day 4)): 26.1** %
% GFR [mean] (oral 1 mg/kg once daily, 24 h after day 4 dose (0 hrs day 5)): 26.4** %
% GFR [mean] (oral 1 mg/kg, 1 h (day 1)): 29.7** %
% GFR [mean] (oral 1 mg/kg, 3 h (day 1)): 45.2** %
% GFR [mean] (oral 1 mg/kg, 3 h (day 1), listed as product prepared with Compound A155(a) and fumaric acid): 45.2%
% GFR [mean] (oral 1 mg/kg, 5 h (day 1)): 37.6** %
% GFR [mean] (oral 1 mg/kg, 7 h (day 1)): 16.5* %
% GFR [mean] (oral 1 mg/kg, 24 h after day 1 dose (0 hrs day 2)): 3.1%
% GFR [mean] (oral 3 mg/kg once daily, 3 h (day 2)): 50.5** %
% GFR [mean] (oral 3 mg/kg once daily, 3 h (day 2), listed as product prepared with Compound A155(a) and fumaric acid): 50.5%
% GFR [mean] (oral 3 mg/kg once daily, 3 h (day 3)): 45.0** %
% GFR [mean] (oral 3 mg/kg once daily, 3 h (day 3), listed as product prepared with Compound A155(a) and fumaric acid): 45.0%
% GFR [mean] (oral 3 mg/kg once daily, 3 h (day 4)): 45.6** %
% GFR [mean] (oral 3 mg/kg once daily, 3 h (day 4), listed as product prepared with Compound A155(a) and fumaric acid): 45.6%
% GFR [mean] (oral 3 mg/kg once daily, 24 h after day 2 dose (0 hrs day 3)): 22.0** %
% GFR [mean] (oral 3 mg/kg once daily, 24 h after day 3 dose (0 hrs day 4)): 32.0** %
% GFR [mean] (oral 3 mg/kg once daily, 24 h after day 4 dose (0 hrs day 5)): 28.9** %
% GFR [mean] (oral 3 mg/kg, 1 h (day 1)): 36.5** %
% GFR [mean] (oral 3 mg/kg, 3 h (day 1)): 53.6** %
% GFR [mean] (oral 3 mg/kg, 3 h (day 1), listed as product prepared with Compound A155(a) and fumaric acid): 53.6%
% GFR [mean] (oral 3 mg/kg, 5 h (day 1)): 44.3** %
% GFR [mean] (oral 3 mg/kg, 7 h (day 1)): 19.9** %
% GFR [mean] (oral 3 mg/kg, 24 h after day 1 dose (0 hrs day 2)): −2.2%
% GFR [mean] (oral 10 mg/kg once daily, 3 h (day 2)): 57.5** %
% GFR [mean] (oral 10 mg/kg once daily, 3 h (day 2), listed as product prepared with Compound A155(a) and fumaric acid): 57.5%
% GFR [mean] (oral 10 mg/kg once daily, 3 h (day 3)): 51.6** %
% GFR [mean] (oral 10 mg/kg once daily, 3 h (day 3), listed as product prepared with Compound A155(a) and fumaric acid): 51.6%
% GFR [mean] (oral 10 mg/kg once daily, 3 h (day 4)): 52.2** %
% GFR [mean] (oral 10 mg/kg once daily, 3 h (day 4), listed as product prepared with Compound A155(a) and fumaric acid): 52.2%
% GFR [mean] (oral 10 mg/kg once daily, 24 h after day 2 dose (0 hrs day 3)): 32.7** %
% GFR [mean] (oral 10 mg/kg once daily, 24 h after day 3 dose (0 hrs day 4)): 33.4** %
% GFR [mean] (oral 10 mg/kg once daily, 24 h after day 4 dose (0 hrs day 5)): 32.0** %
% GFR [mean] (oral 10 mg/kg, 1 h (day 1)): 35.9** %
% GFR [mean] (oral 10 mg/kg, 3 h (day 1)): 55.6** %
% GFR [mean] (oral 10 mg/kg, 3 h (day 1), listed as product prepared with Compound A155(a) and fumaric acid): 55.6%
% GFR [mean] (oral 10 mg/kg, 5 h (day 1)): 45.9** %
% GFR [mean] (oral 10 mg/kg, 7 h (day 1)): 22.8** %
% GFR [mean] (oral 10 mg/kg, 24 h after day 1 dose (0 hrs day 2)): −5.7%
% GFR [mean] (oral 20 mg/kg, 1 h (day 1)): 49.0** %
% GFR [mean] (oral 20 mg/kg, 3 h (day 1)): 65.1** %
% GFR [mean] (oral 20 mg/kg, 3 h (day 1), listed as product prepared with Compound A155(a) and fumaric acid): 65.1%
% GFR [mean] (oral 20 mg/kg, 5 h (day 1)): 50.3** %
% GFR [mean] (oral 20 mg/kg, 7 h (day 1)): 29.3** %
% GFR [mean] (oral 20 mg/kg, 24 h after day 1 dose (0 hrs day 2)): −1.3%
